According to patent US20160338935A1, “PROCESS FOR THE PURIFICATION OF HEPARAN SULFATE AND USE THEREOF IN COSMETOLOGICAL AND DERMATOLOGICAL PREPARATIONS” (LABORATORI DERIVATI ORGANICI SPA, priority 2008, published 2016):

Tests used:
melanoma cells B16 = assay: In vitro bleaching (whitening) activity: melanin content on melanoma cells B16; format: cell-based
Method: The in vitro whitening effect of HS was detected by measurement of melanin content on melanoma cells B16 (fibroblast-like cells able to produce melanin) after 6 days of contact with HS at 2 different concentrations: 0.1 mg/ml (0.01%) and 0.05 mg/ml (0.005%).
The negative control (NC) was represented by untreated cells (cell without any substance). The positive control (PC) was represented by cells treated with Hydroquinone 5 μg/ml (0.0005%).

[1] = test system: human keratinocytes cell cultures; assay: In vitro anti-oxidant activity against UVA: ROS reduction on human keratinocytes cell cultures; format: cell-based; conditions: for inhibition at 150 µg/mL: Homo sapiens, Keratinocyte, light or radiation study, Vit C 0.15 mg/ml
Method: In vitro Evaluation of the anti-ageing activity of cosmetic products through the investigation of their anti-oxidant and protective activity against UVA on human keratinocytes cell cultures. The antioxidant effect of HS is detected by measurement of reduction of free radicals as Reactive Oxygen Species (ROS) after exposure to 3 different UVA irradiation for 1 minute and 30 seconds (1′ 30″), for 3 minutes (3′) and for 4 minutes and 30 seconds (4′ 30″), with HS at 7 different concentrations: 0.031 mg/ml (0.0031%), 0.063 mg/ml (0.0063%), 0.125 mg/ml (0.0125%), 0.250 mg/ml (0.0250%), 0.500 mg/ml (0.0500%), 1.000 mg/ml (0.1000%) and […]. The negative control (NC) was: untreated cells (cells without any substance). The positive control (PC) was: Vitamin C (0.15 mg/ml) (0.015%).

fibroblast cells = assay: In vitro mitogenic activity: fibroblast cells proliferation and protein synthesis; format: cell-based
Method: The mitogenic effect of HS is detected by measurement of fibroblast cells proliferation, measurement of protein synthesis after exposure for 48 hours and 72 hours, using HS at 2 different concentrations: 0.1 mg/ml (0.01%) and 0.05 mg/ml (0.005%). The negative control (NC) is represented by untreated cells, the positive control (PC) is: EGF (Epidermal Growth Factor) (10 μg/ml) (0.001%).

basophil cells = assay: In vitro degranulation test on basophil cells (release of β-hexosaminidase); format: cell-based
Method: Basophil cells, when come in contact with irritant substances, give their biochemical response that is the secretion (by degranulation) of substances (such as histamine, leukotriens, proteolytic enzymes as hexosaminidase) that contribute to inflammatory events.
Inhibition in basophil cells degranulation is a measure of lenitive (anti-itching) effect of a substance. The in vitro lenitive effect of HS was detected by measurement of the release of β-hexosaminidase after 2 h of contact with HS at 4 different concentrations: 10 mg/ml (1%), 5 mg/ml (0.5%), 1 mg/ml (0.1%), 0.2 mg/ml (0.02%).
The negative control (NC) was represented by untreated cells (cells without any substance). The positive control (PC) was represented by basophil degranulation stimuli (by crosslinking the receptor FcεRI with a specific polyclonal antibody against to the α-chain stimulate the degranulation). The maximal stimulation (degranulation) is: cell treated with 1% Triton X-100. […]

[2] = APTT (European Pharmacopeia, 4th edition); conditions: purified heparan sulfate
Method: Organic sulfur, Uronic acid, Glucosamine, Optical rotation, total nitrogen and APTT were measured in accordance with the European Pharmacopeia, 4th edition. Electrophoresis was performed in accordance with R. Cappelletti et al. “A new Electrophoretic method for the separation of all Gags” Anal. Biochem. 99:311-315 (1979).

[3] = Hydroquinone 0.0005% (5 μg/ml), positive control
[4] = HS 0.005% (0.05 mg/ml), 6 days of contact
[5] = HS 0.01% (0.1 mg/ml), 6 days of contact

## Oc1ccc(O)cc1 [Hydroquinone, reference compound]
Melanoma cells B16; [3]
  % Melanin Synthesis Inhibition vs NC: 76.8%
  Melanin Content (μg melanin/mg protein): 10.8 μg melanin/mg protein

## O=C1O[C@H]([C@@H](O)CO)C(O)=C1O [Vit C, Vitamin C, reference compound]
[1]; 1′30″ UVA
  inhibition at 150 µg/mL: 33.5%
[1]; 3′00″ UVA
  inhibition at 150 µg/mL: 31.4%
[1]; 4′30″ UVA
  inhibition at 150 µg/mL: 12.7%

## EGF: EGF (Epidermal Growth Factor), positive control [reference compound]
Fibroblast cells; 48 h, EGF 10 μg/ml (0.001%)
  % cell proliferation vs NC: 112.5%
  % protein synthesis vs NC: 116.6%
Fibroblast cells; 72 h, EGF 10 μg/ml (0.001%)
  % cell proliferation vs NC: 121.6%
  % protein synthesis vs NC: 119.0%

## Triton X-100 [reference compound]
Basophil cells; maximal stimulation: 1% Triton X-100
  release of β-hexosaminidase OD at 450 nm: 0.377 OD

## heparan sulphate sodium salt [HS]
[2]
  APTT: 6.31 U/mg
Melanoma cells B16; 0.1 and 0.05 mg/ml, 6 days
  in vitro whitening effect: shows in vitro whitening effect
Melanoma cells B16; [4]
  % Melanin Synthesis Inhibition vs NC: 5.2%
  Melanin Content (μg melanin/mg protein): 44.4 μg melanin/mg protein
Melanoma cells B16; [5]
  % Melanin Synthesis Inhibition vs NC: 10.3%
  Melanin Content (μg melanin/mg protein): 41.9 μg melanin/mg protein
Basophil cells; HS 0.2 mg/ml + PC (degranulation stimulus)
  release of β-hexosaminidase OD at 450 nm: 0.112 OD
Basophil cells; HS 0.2 mg/ml alone, 2 h of contact
  release of β-hexosaminidase OD at 450 nm: 0.061 OD
Basophil cells; HS 1 mg/ml + PC (degranulation stimulus)
  release of β-hexosaminidase OD at 450 nm: 0.110 OD
Basophil cells; HS 1 mg/ml alone, 2 h of contact
  release of β-hexosaminidase OD at 450 nm: 0.062 OD
Basophil cells; HS 5 mg/ml + PC (degranulation stimulus)
  release of β-hexosaminidase OD at 450 nm: 0.055 OD
Basophil cells; HS 5 mg/ml alone, 2 h of contact
  release of β-hexosaminidase OD at 450 nm: 0.059 OD
Basophil cells; HS 10 mg/ml + PC (degranulation stimulus)
  release of β-hexosaminidase OD at 450 nm: 0.061 OD
Basophil cells; HS 10 mg/ml alone, 2 h of contact
  release of β-hexosaminidase OD at 450 nm: 0.066 OD
Basophil cells; HS + PC, best efficacy at 0.5% and 1%
  level of β-hexosaminidase with irritant substance (positive control) and HS: decrease in a dose dependent way
Basophil cells; HS alone at different concentration
  effect on basophil cells degranulation: no effect on basophil cells degranulation
[1]; 1′30″ UVA, HS 0.031 mg/ml
  ROS Inhibition %: 25.3%
[1]; 1′30″ UVA, HS 0.063 mg/ml
  ROS Inhibition %: 25.4%
[1]; 1′30″ UVA, HS 0.125 mg/ml
  ROS Inhibition %: 23.5%
[1]; 1′30″ UVA, HS 0.250 mg/ml
  ROS Inhibition %: 28.0%
[1]; 1′30″ UVA, HS 0.500 mg/ml
  ROS Inhibition %: 30.6%
[1]; 1′30″ UVA, HS 1.000 mg/ml
  ROS Inhibition %: 38.7%
[1]; 1′30″ UVA, HS 9.000 mg/ml
  ROS Inhibition %: 30.7%
[1]; 3′00″ UVA, HS 0.031 mg/ml
  ROS Inhibition %: 20.1%
[1]; 3′00″ UVA, HS 0.063 mg/ml
  ROS Inhibition %: 21.8%
[1]; 3′00″ UVA, HS 0.125 mg/ml
  ROS Inhibition %: 14.2%
[1]; 3′00″ UVA, HS 0.250 mg/ml
  ROS Inhibition %: 22.9%
[1]; 3′00″ UVA, HS 0.500 mg/ml
  ROS Inhibition %: 29.1%
[1]; 3′00″ UVA, HS 1.000 mg/ml
  ROS Inhibition %: 35.7%
[1]; 3′00″ UVA, HS 9.000 mg/ml
  ROS Inhibition %: 31.6%
[1]; 4′30″ UVA, HS 0.031 mg/ml
  ROS Inhibition %: 6.2%
[1]; 4′30″ UVA, HS 0.063 mg/ml
  ROS Inhibition %: 13.7%
[1]; 4′30″ UVA, HS 0.125 mg/ml
  ROS Inhibition %: 10.3%
[1]; 4′30″ UVA, HS 0.250 mg/ml
  ROS Inhibition %: 18.1%
[1]; 4′30″ UVA, HS 0.500 mg/ml
  ROS Inhibition %: 24.7%
[1]; 4′30″ UVA, HS 1.000 mg/ml
  ROS Inhibition %: 30.4%
[1]; 4′30″ UVA, HS 9.000 mg/ml
  ROS Inhibition %: 26.3%
[1]; HS at 0.1% concentration
  antioxidant efficacy compared with Vitamin C: comparable or even higher than the efficacy of Vitamin C
Fibroblast cells; 48 h, HS 0.05 mg/ml (0.005%)
  % cell proliferation vs NC: 106.7%
  % protein synthesis vs NC: 110.2%
Fibroblast cells; 48 h, HS 0.1 mg/ml (0.01%)
  % cell proliferation vs NC: 110.5%
  % protein synthesis vs NC: 103.1%
Fibroblast cells; 72 h, HS 0.05 mg/ml (0.005%)
  % cell proliferation vs NC: 118.2%
  % protein synthesis vs NC: 120.4%
Fibroblast cells; 72 h, HS 0.1 mg/ml (0.01%)
  % cell proliferation vs NC: 118.1%
  % protein synthesis vs NC: 113.2%
Fibroblast cells; 72 hour, 0.05 mg/ml
  highest effect for cell proliferation (increase over NC): 18.2%
  highest effect for protein synthesis (increase over NC): 20.4%
